Reference: patent US20230365627A1, “MACROCYCLIC PEPTIDE BORONATE IMMUNOMODULATORS” (Bristol-Myers Squibb Company, priority 2020, published 2023)
*1 amine or outer side, *2 acyl side, *3 side chain or, on linkers, in order; H or OH if unused. Where a SMILES comes first, the peptide text is derived from it. Bridges are numbered along the chain shown (N, C = ends). [ ]: non-standard residue; d: D form. Trp(1-CH2CO) = O=C([C@H](Cc1cn(CC(=O)[*:3])c2ccccc12)N[*:1])[*:2]; X25 = O=C([C@H](CNCc1cc(F)c(B(O)O[*:3])c(F)c1)N[*:1])[*:2]; X15 = COc1cccc(B(O)O[*:3])c1CNC[C@H](N[*:1])C(=O)[*:2]; X19 = O=C([C@H](CNCc1cccc(B(O)O[*:3])c1F)N[*:1])[*:2]; X8 = O=C([C@H](CNCc1ccc(B(O)O[*:3])cc1Cl)N[*:1])[*:2]; X20 = O=C([C@H](CCNCc1cccc(B(O)O)c1F)N[*:1])[*:2]; X9 = O=C([C@H](CCNCc1ccc(B(O)O)cc1Cl)N[*:1])[*:2]; Hyp = O=C(O)[C@@H]1C[C@@H](O)CN1; NMeNle = CCCC[C@H](NC)C(=O)O; NMeA = CN[C@@H](C)C(=O)O; Dab = NCC[C@H](N)C(=O)O

Molecular target: PD-1/PD-L1 (Homo sapiens (Human), UniProt Q9NZQ7)
Experiment: PD-1/PD-L1 Homogenous Time-Resolved Fluorescence (HTRF) binding assay
Details: PD-L1-His 10 nM, PD-1-Ig 20 nM; read-out: HTRF IC50
From the text: Methods for Testing the Ability of Macrocyclic Peptides to Compete for the Binding of PD-1 to PD-L1 Using Homogenous Time-Resolved Fluorescence (HTRF) Binding Assays
The ability of the compounds of formula (I) to bind to PD-L1 was investigated using a PD-1/PD-L1 Homogenous Time-Resolved Fluorescence (HTRF) binding assay.
Homogenous Time-Resolved Fluorescence (HTRF) Binding Assay
The interaction of PD-1 and PD-L1 can be assessed using soluble, purified preparations of the extracellular domains of the two proteins. The PD-1 and PD-L1 protein extracellular domains were expressed as fusion proteins with detection tags, for PD-1, the tag was the Fc portion of Immunoglobulin (PD-1-Ig) and for PD-L1 it was the 6 histidine motif (PD-L1-His). All binding studies were performed in an HTRF assay buffer consisting of dPBS supplemented with 0.1% […] bovine serum albumin and 0.05% (v/v) Tween-20. For the h/PD-L1-His binding assay, inhibitors were pre-incubated with PD-L1-His (10 nM final) for 15 m in 4 μl of assay buffer, followed by addition of PD-1-Ig (20 nM final) in 1 μl of assay buffer and further incubation for 15 m. HTRF detection was achieved using europium cryptate-labeled anti-Ig (1 nM final) and allophycocyanin (APC) labeled anti-His (20 nM final). Antibodies were diluted in HTRF detection buffer and 5 μl was dispensed on top of the binding reaction. The reaction mixture was allowed to equilibrate for 30 minutes and the resulting signal (665 nm/620 nm ratio) was obtained using an EnVision fluorometer. Additional binding assays were established between the human proteins PD-1-Ig/PD-L2-His (20 & 5 nM, respectively) and CD80-His/PD-L1-Ig (100 & 10 nM, respectively).
Recombinant Proteins: Human PD-1 (25-167) with a C-terminal human Fc domain of immunoglobulin G (Ig) epitope tag [hPD-1 (25-167)-3S-IG] and human PD-L1 (18-239) with a C-terminal His epitope tag [hPD-L1(18-239)-TVMV-His] were expressed in HEK293T cells and purified sequentially by ProteinA affinity chromatography and size exclusion chromatography. Human PD-L2-His and CD80-His was obtained through commercial sources.
Table 1 lists the IC50 values for representative examples of this disclosure measured in the PD-1/PD-L1 Homogenous Time-Resolved Fluorescence (HTRF) binding assay.

PD-1/PD-L1, sequence (Q9NZQ7 18-239): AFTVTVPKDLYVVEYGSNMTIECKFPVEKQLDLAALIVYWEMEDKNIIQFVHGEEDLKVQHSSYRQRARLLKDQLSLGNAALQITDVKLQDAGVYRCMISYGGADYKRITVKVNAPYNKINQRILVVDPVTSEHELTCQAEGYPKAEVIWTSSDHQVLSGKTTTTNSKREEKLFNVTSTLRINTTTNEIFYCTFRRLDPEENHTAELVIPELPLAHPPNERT

Structure (SMILES) | IC50
CCCC[C@H]1C(=O)N(C)[C@@H](CCCC)C(=O)N[C@@H](CC(C)C)C(=O)N[C@H](C(=O)NCC(N)=O)CSCC(=O)N[C@H]2Cc3ccc(cc3)OB(O)c3ccc(c(C(F)(F)F)c3)CNCC[C@@H]3NC(=O)[C@H](Cc4c[nH]c5ccccc45)NC(=O)[C@@H]4C[C@@H](O)CN4C(=O)[C@H](CC(C)C)NC(=O)[C@H](CNCc4ccc(cc4C(F)(F)F)B(O)OC(=O)Cn4cc(c5ccccc54)C[C@H](NC3=O)C(=O)N1C)NC(=O)[C@@H]1CCCN1C(=O)[C@H](CC(N)=O)NC(=O)[C@H](C)N(C)C2=O [Example 1030] | 11 nM
CCCC[C@H]1C(=O)N(C)[C@@H](CCCC)C(=O)N[C@@H](CC(C)C)C(=O)N[C@H](C(=O)NCC(N)=O)CSCC(=O)N[C@@H](Cc2ccc(O)cc2)C(=O)N(C)[C@@H](C)C(=O)N[C@@H](CC(N)=O)C(=O)N2CCC[C@H]2C(=O)N[C@H]2CNCc3cc(F)c(c(F)c3)B(O)OC(=O)Cn3cc(c4ccccc43)C[C@H](NC(=O)[C@H](CCN)NC(=O)[C@H](Cc3c[nH]c4ccccc34)NC(=O)[C@@H]3C[C@@H](O)CN3C(=O)[C@H](CC(C)C)NC2=O)C(=O)N1C [Example 1007] ({CH2CO}-Y[NMeA]NP[X25]L[Hyp]W[Dab][Trp(1-CH2CO)][NMeNle][NMeNle]LCG-NH2; ester 5-10; thioether N-14) | 9.9 nM
CCCC[C@H]1C(=O)N(C)[C@@H](CCCC)C(=O)N[C@@H](CC(C)C)C(=O)N[C@H](C(=O)NCC(N)=O)CSCC(=O)N[C@@H](Cc2ccc(O)cc2)C(=O)N(C)[C@@H](C)C(=O)N[C@@H](CC(N)=O)C(=O)N2CCC[C@H]2C(=O)N[C@H]2CNCc3c(OC)cccc3B(O)OC(=O)Cn3cc(c4ccccc43)C[C@H](NC(=O)[C@H](CCN)NC(=O)[C@H](Cc3c[nH]c4ccccc34)NC(=O)[C@@H]3C[C@@H](O)CN3C(=O)[C@H](CC(C)C)NC2=O)C(=O)N1C [Example 1012] ({CH2CO}-Y[NMeA]NP[X15]L[Hyp]W[Dab][Trp(1-CH2CO)][NMeNle][NMeNle]LCG-NH2; ester 5-10; thioether N-14) | 3 nM
CCCC[C@H]1C(=O)N(C)[C@@H](CCCC)C(=O)N[C@@H](CC(C)C)C(=O)N[C@H](C(=O)NCC(N)=O)CSCC(=O)N[C@@H](Cc2ccc(O)cc2)C(=O)N(C)[C@@H](C)C(=O)N[C@@H](CC(N)=O)C(=O)N2CCC[C@H]2C(=O)N[C@H]2CNCc3ccc(cc3Cl)B(O)OC(=O)Cn3cc(c4ccccc43)C[C@H](NC(=O)[C@H](CCNCc3ccc(B(O)O)cc3Cl)NC(=O)[C@H](Cc3c[nH]c4ccccc34)NC(=O)[C@@H]3C[C@@H](O)CN3C(=O)[C@H](CC(C)C)NC2=O)C(=O)N1C [Example 1033] ({CH2CO}-Y[NMeA]NP[X8]L[Hyp]W[X9][Trp(1-CH2CO)][NMeNle][NMeNle]LCG-NH2; ester 5-10; thioether N-14) | 9 nM
CCCC[C@H]1C(=O)N(C)[C@@H](CCCC)C(=O)N[C@@H](CC(C)C)C(=O)N[C@H](C(=O)NCC(N)=O)CSCC(=O)N[C@@H](Cc2ccc(O)cc2)C(=O)N(C)[C@@H](C)C(=O)N[C@@H](CC(N)=O)C(=O)N2CCC[C@H]2C(=O)N[C@H]2CNCc3cccc(c3F)B(O)OC(=O)Cn3cc(c4ccccc43)C[C@H](NC(=O)[C@H](CCNCc3cccc(B(O)O)c3F)NC(=O)[C@H](Cc3c[nH]c4ccccc34)NC(=O)[C@@H]3C[C@@H](O)CN3C(=O)[C@H](CC(C)C)NC2=O)C(=O)N1C [Example 1022] ({CH2CO}-Y[NMeA]NP[X19]L[Hyp]W[X20][Trp(1-CH2CO)][NMeNle][NMeNle]LCG-NH2; ester 5-10; thioether N-14) | 5 nM
